The source of these data is patent publication US11312719B2, “9-substituted amino triazolo quinazoline derivatives as adenosine receptor antagonists, pharmaceutical compositions and their use” (Merck Sharp & Dohme Corp., priority 2018, dated 2022).

By IC50 is commonly meant the concentration that inhibits the measured activity by half.

The target in one test is human A2B receptors (Homo sapiens (Human), UniProt P29275). Put plainly: A2B antagonism in cAMP cell-based assay (LANCE cAMP, HEK293). As to conditions: HEK293 cells expressing human A2B receptor. As for the experimental part: (§1) Measurement of A2A and A2B Antagonism in cAMP Cell-Based Assay
(§2) The ability of compounds to antagonize human A2A and A2B adenosine receptors was determined using a kit to measure changes in intracellular cyclic AMP levels (LANCE cAMP 384 Kit, Perkin Elmer, Cat. No. AD0264). HEK293 cells recombinantly expressing either human A2A or A2B receptors, previously frozen in Recovery Medium (Life Technologies, Cat. No. 12648-010) were thawed and diluted into stimulation buffer (HBSS (Hyclone SH 30268.01), 5 mM HEPES (Gibco 15630-106), 200 nM rolipram (Tocris, Cat. No. 0905), and 1.5% (V/v) BSA stabilizer (kit component). The cell suspension was centrifuged at 200×g for 10 min and then resuspended in stimulation buffer, supplemented with a 1:10 000 dilution of Alexa Fluor 647 anti-cAMP antibody, to a density of 6.0×10^5 cells/mL. A Labcyte Echo 550 acoustic dispenser was used to transfer up to 25 nL of test compound dissolved in DMSO into the wells of a dry Optiplate-384 plate (Perkin Elmer, Cat. No. 6008289). All subsequent liquid additions were performed using a multichannel pipettor. Next, 5 μL of the cell suspension was added to the wells of the Optiplate-384 and incubated for 30 min. at 37° C. and 5% CO2 in a humidified environment. After this time 5 μL of either 300 nM or 600 nM adenosine (Sigma Cat. No. A9251) for A2A and A2B respectively was added and incubated for 30 minutes at 37° C. and 5% CO2 in a humidified environment. At this time detection mix was prepared by combining the LANCE Eu-W8044 labeled streptavidin and Biotin-cAMP in detection buffer according to the manufacturers protocol. 10 μL of the detection mix was added to each well of the Optiplate-384 which was covered with a plate seal and incubated under ambient conditions for 2 hours prior to reading the plate using an Envision (Perkin Elmer, Waltham, Mass.) multimode plate reader. Data was normalized by defining minimal effect as stimulation in the presence of 0.25% (v/v) DMSO and maximal effect as stimulation in the presence of 1 μM ZM241385 (Cayman, Cat. No. 1036). Curve fitting of the percent effect data versus the log of compound concentration used a 4-parameter concentration response curve fitting algorithm to calculate IC50 values. Compound concentrations tested were 10,000, 3,333, 1,111, 370.4, 123.4, 41.2, 13.7, 4.6, 1.5 and 0.5 nM with 0.25% residual DMSO.

Another test addresses human A2A receptors (Homo sapiens (Human), UniProt P29274). Put plainly: A2A antagonism in cAMP cell-based assay (LANCE cAMP, HEK293). As to conditions: HEK293 cells expressing human A2A receptor. Here is the method: as §1, §2
Background: TR-FRET usually uses a lanthanide donor and a delayed reading to cut background.

Sequence of human A2A receptors (P29274 whole entry): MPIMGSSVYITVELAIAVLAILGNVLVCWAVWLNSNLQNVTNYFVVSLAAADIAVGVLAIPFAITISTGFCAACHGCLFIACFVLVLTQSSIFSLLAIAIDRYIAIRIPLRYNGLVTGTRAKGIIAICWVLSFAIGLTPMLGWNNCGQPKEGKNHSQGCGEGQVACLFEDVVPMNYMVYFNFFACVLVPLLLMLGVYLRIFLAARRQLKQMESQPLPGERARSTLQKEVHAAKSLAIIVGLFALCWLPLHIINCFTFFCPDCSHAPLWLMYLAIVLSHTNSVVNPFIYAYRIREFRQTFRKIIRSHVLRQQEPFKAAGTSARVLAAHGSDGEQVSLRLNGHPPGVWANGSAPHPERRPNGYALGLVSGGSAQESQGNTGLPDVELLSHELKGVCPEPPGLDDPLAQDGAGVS
Sequence of human A2B receptors (P29275 whole entry): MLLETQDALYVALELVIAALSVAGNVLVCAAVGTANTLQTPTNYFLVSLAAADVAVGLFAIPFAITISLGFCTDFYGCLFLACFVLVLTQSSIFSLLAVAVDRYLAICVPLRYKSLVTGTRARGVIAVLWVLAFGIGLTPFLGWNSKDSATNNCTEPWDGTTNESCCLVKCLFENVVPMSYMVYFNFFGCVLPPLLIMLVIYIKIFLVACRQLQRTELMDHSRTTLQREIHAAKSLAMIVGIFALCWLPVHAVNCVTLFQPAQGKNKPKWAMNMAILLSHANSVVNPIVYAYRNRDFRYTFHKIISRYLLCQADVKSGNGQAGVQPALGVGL

As to `COc1cc2nc(N)n3nc(C4CC(C)CN(c5cn(C(C)(C)CO)nc5C)C4)nc3c2cc1F` (racemic) [Example 155, racemic, trans-2-(4-(3-(5-amino-9-fluoro-8-methoxy-[1,2,4]triazolo [1,5-c]quinazolin-2-yl)-5-methylpiperidin-1-yl)-3-methyl-1H-pyrazol-1-yl)-2-methylpropan-1-ol], the figures for the IC50 against human A2B receptors and against human A2A receptors were 1440 nM and 23.9 nM, respectively.
For `COc1cc2nc(N)n3nc(C4CC(C)CN(c5cnn(C(C)(C)CO)c5)C4)nc3c2cc1F` (racemic) [Example 156, racemic, trans-2-(4-(3-(5-amino-9-fluoro-8-methoxy-[1,2,4]triazolo[1,5-c]quinazolin-2-yl)-5-methylpiperidin-1-yl)-1H-pyrazol-1-yl)-2-methylpropan-1-ol], in that order: 358 nM and 9.5 nM.
On the same counts, the results for `COc1cc2nc(N)n3nc([C@@H]4C[C@H](C)CN(c5cnn(CC(C)(C)O)c5)C4)nc3c2cc1F` (single isomer, unassigned) [Example 157, 1-(4-((3R,5S or 3S,5R)-3-(5-amino-9-fluoro-8-methoxy-[1,2,4]triazolo[1,5-c]quinazolin-2-yl)-5-methylpiperidin-1-yl)-1H-pyrazol-1-yl)-2-methylpropan-2-ol] are 4480 nM and 33.4 nM.
`COc1cc2nc(N)n3nc([C@H]4C[C@@H](C)CN(c5cnn(CC(C)(C)O)c5)C4)nc3c2cc1F` (single isomer, unassigned) [Example 158, 1-(4-((3S,5R or 3R,5S)-3-(5-amino-9-fluoro-8-methoxy-[1,2,4]triazolo[1,5-c]quinazolin-2-yl)-5-methylpiperidin-1-yl)-1H-pyrazol-1-yl)-2-methylpropan-2-ol]: the IC50 at human A2B receptors was found to be 32.9 nM; at human A2A receptors, 1.1 nM.
On the same counts, the results for `COc1cc(F)cc2c1nc(N)n1nc(C3CC(C)CN(c4cnn(CC(C)(C)O)c4)C3)nc21` (single isomer, unassigned) [Example 159, 1-(4-((3R,5S or 3S,5R)-3-(5-amino-9-fluoro-7-methoxy-[1,2,4]triazolo[1,5-c]quinazolin-2-yl)-5-methylpiperidin-1-yl)-1H-pyrazol-1-yl)-2-methylpropan-2-ol] are 29.3 nM and 1 nM.
For `COc1cc(F)cc2c1nc(N)n1nc(C3CC(C)CN(c4cnn(CC(C)(C)O)c4)C3)nc21` (single isomer, unassigned) [Example 160, 1-(4-((3S,5R or 3R,5S)-3-(5-amino-9-fluoro-7-methoxy-[1,2,4]triazolo[1,5-c]quinazolin-2-yl)-5-methylpiperidin-1-yl)-1H-pyrazol-1-yl)-2-methylpropan-2-ol], in that order: 648 nM and 8.7 nM.
As to `CC1CC(c2nc3c4cc(F)cc(F)c4nc(N)n3n2)CN(c2cnn(CC(C)(C)O)c2)C1` (single isomer, unassigned) [Example 163, 1-(4-((3R,5S or 3S,5R)-3-(5-amino-7,9-difluoro-[1,2,4]triazolo[1,5-c]quinazolin-2-yl)-5-methylpiperidin-1-yl)-1H-pyrazol-1-yl)-2-methylpropan-2-ol], the IC50 came out at 5310 nM on human A2B receptors and 36 nM on human A2A receptors.
For `CC1CC(c2nc3c4cc(F)cc(F)c4nc(N)n3n2)CN(c2cnn(CC(C)(C)O)c2)C1` (single isomer, unassigned) [Example 164, 1-(4-((3S,5R or 3R,5S)-3-(5-amino-7,9-difluoro-[1,2,4]triazolo[1,5-c]quinazolin-2-yl)-5-methylpiperidin-1-yl)-1H-pyrazol-1-yl)-2-methylpropan-2-ol], the IC50 was determined as 47.7 nM against human A2B receptors and 1.9 nM against human A2A receptors.
In the case of `COc1cc(F)cc2c1nc(N)n1nc(C3CC(C)CN(c4cnn(C(C)(C)CO)c4)C3)nc21` (single isomer, unassigned) [Example 165, 2-(4-((3R,5S or 3S,5R)-3-(5-amino-9-fluoro-7-methoxy-[1,2,4]triazolo[1,5-c]quinazolin-2-yl)-5-methylpiperidin-1-yl)-1H-pyrazol-1-yl)-2-methylpropan-1-ol], the figures for the half-inhibitory concentration (IC50) on human A2B receptors and on human A2A receptors were 6.4 nM and 0.8 nM, respectively.
Regarding `COc1cc(F)cc2c1nc(N)n1nc(C3CC(C)CN(c4cnn(C(C)(C)CO)c4)C3)nc21` (single isomer, unassigned) [Example 166, 2-(4-((3S,5R or 3R,5S)-3-(5-amino-9-fluoro-7-methoxy-[1,2,4]triazolo[1,5-c]quinazolin-2-yl)-5-methylpiperidin-1-yl)-1H-pyrazol-1-yl)-2-methylpropan-1-ol], the concentration for half-maximal inhibition (IC50) amounted to 2770 nM against human A2B receptors and 20 nM against human A2A receptors.
For `Cc1nn(CC(C)(C)O)cc1N1CC(C)CC(c2nc3c4cc(F)cc(F)c4nc(N)n3n2)C1` (single isomer, unassigned) [Example 167, 1-(4-((3R,5S or 3S,5R)-3-(5-amino-7,9-difluoro-[1,2,4]triazolo[1,5-c]quinazolin-2-yl)-5-methylpiperidin-1-yl)-3-methyl-1H-pyrazol-1-yl)-2-methylpropan-2-ol], in that order: 46 nM and 0.6 nM.
`Cc1nn(CC(C)(C)O)cc1N1CC(C)CC(c2nc3c4cc(F)cc(F)c4nc(N)n3n2)C1` (single isomer, unassigned) [Example 168, 1-(4-((3S,5R or 3R,5S)-3-(5-amino-7,9-difluoro-[1,2,4]triazolo[1,5-c]quinazolin-2-yl)-5-methylpiperidin-1-yl)-3-methyl-1H-pyrazol-1-yl)-2-methylpropan-2-ol]: the values for the IC50 at human A2B receptors and on human A2A receptors were 4720 nM and 23.9 nM, respectively.
With `COc1cc2nc(N)n3nc(C4CC(C)CN(c5cn(C(C)(C)CO)nc5C)C4)nc3c2cc1F` (single isomer, unassigned) [Example 169, 2-(4-((3S,5S or 3S,5R)-3-(5-amino-9-fluoro-8-methoxy-[1,2,4]triazolo[1,5-c]quinazolin-2-yl)-5-methylpiperidin-1-yl)-3-methyl-1H-pyrazol-1-yl)-2-methylpropan-1-ol], the IC50 on human A2B receptors came to 3380 nM; on human A2A receptors, 96.5 nM.
For `COc1cc2nc(N)n3nc(C4CC(C)CN(c5cn(C(C)(C)CO)nc5C)C4)nc3c2cc1F` (single isomer, unassigned) [Example 170, 2-(4-((3S,5R or 3R,5S)-3-(5-amino-9-fluoro-8-methoxy-[1,2,4]triazolo[1,5-c]quinazolin-2-yl)-5-methylpiperidin-1-yl)-3-methyl-1H-pyrazol-1-yl)-2-methylpropan-1-ol], in that order: 14.1 nM and 0.8 nM.
On to `COc1cc(F)cc2c1nc(N)n1nc(C3CC(C)CN(c4cn(C(C)C(C)O)nc4C)C3)nc21` (single isomer, unassigned) [Example 224, (2S,3S or 2R,3R)-3-(4-((3R,5S or 3S,5R)-3-(5-amino-9-fluoro-7-methoxy-[1,2,4]triazolo[1,5-c]quinazolin-2-yl)-5-methylpiperidin-1-yl)-3-methyl-1H-pyrazol-1-yl)butan-2-ol], for which the IC50 at human A2A receptors stood at 0.4 nM. In other words, the sub-nanomolar range.
Still for that read-out and setting: the figure for `COc1cc(F)cc2c1nc(N)n1nc(C3CC(C)CN(c4cn(C(C)C(C)O)nc4C)C3)nc21` (single isomer, unassigned) [Example 225, (2R,3R or 2S,3S)-3-(4-((3R,5S or 3S,5R)-3-(5-amino-9-fluoro-7-methoxy-[1,2,4]triazolo[1,5-c]quinazolin-2-yl)-5-methylpiperidin-1-yl)-3-methyl-1H-pyrazol-1-yl)butan-2-ol] is 0.4 nM; for `COc1cc(F)cc2c1nc(N)n1nc(C3CC(C)CN(c4cn(C(C)C(C)O)nc4C)C3)nc21` (single isomer, unassigned) [Example 226, (2R,3R or 2S,3S)-3-(4-((3S,5R or 3R,5S)-3-(5-amino-9-fluoro-7-methoxy-[1,2,4]triazolo[1,5-c]quinazolin-2-yl)-5-methylpiperidin-1-yl)-3-methyl-1H-pyrazol-1-yl)butan-2-ol] it is 17.6 nM.
In the case of `COc1cc(F)cc2c1nc(N)n1nc(C3CC(C)CN(c4cn(C(C)C(C)O)nc4C)C3)nc21` (single isomer, unassigned) [Example 227, (2S,3S or 2R,3R)-3-(4-((3S,5R or 3R,5S)-3-(5-amino-9-fluoro-7-methoxy-[1,2,4]triazolo[1,5-c]quinazolin-2-yl)-5-methylpiperidin-1-yl)-3-methyl-1H-pyrazol-1-yl)butan-2-ol], the half-inhibitory concentration (IC50) on human A2A receptors turned out to be 40.2 nM.
